Measurements from patent publication US20240010639A1, “TRIAZINE DIONE DERIVATIVE, PREPARATION METHOD THEREFOR AND APPLICATION THEREOF IN MEDICINE” (Jiangsu Hengrui Pharmaceuticals Co., Ltd., priority 2020, published 2024).
Where two headings read alike, the source gives them in different places.

Experiments:
[1] = Pharmacokinetic evaluation in beagles; type: in vivo; conditions: for AUC: read-out: Area under curve AUC; for half-life: read-out: Half-life T1/2 (converted); for Cmax: read-out: Plasma concentration Cmax; for MRT: read-out: Residence time MRT
Procedure: With beagles as test animals, the plasma concentrations of the test compounds were measured by LC/MS/MS at different time points after intragastric administration and intravenous injection. The pharmacokinetic performance of the compound disclosed herein was studied in beagles and its pharmacokinetic profile was evaluated.
Pharmacokinetics of the compound of Example 16 in beagles: 8 beagles, an equal number of males and females, divided into 2 groups of 4, provided by Shanghai Medicilon Inc. Pharmacokinetics of compound MYK-461 in beagles: 6 beagles, male, divided into 2 groups of 3, provided by Shanghai Medicilon Inc.
A certain amount of the compound of Example 16 was measured out, and 5% DMSO, 30% PG, 30% PEG400 and 35% normal saline were added to prepare a clear solution.
A certain amount of compound MYK-461 was measured out, and 5% DMSO, 20% PG, 20% PEG400 and 55% normal saline were added to prepare a clear solution.
Beagles were fasted overnight and then given compounds by intragastric administration and intravenous injection at doses of 2 mg/kg and 0.5 mg/kg, respectively, and at volumes of 5 mL/kg and 2 mL/kg, respectively.
1.0-mL blood samples were collected from the jugular veins or forelimb veins of the animals in the intragastric administration group before administration and 0.25 h, 0.5 h, 1.0 h, 2.0 h, 4.0 h, 6.0 h, 8.0 h, 12.0 h and 24.0 h after administration, placed into EDTA-K2 anticoagulant tubes, and centrifuged at 10,000 rpm for 5 min (4° C.), and plasma was isolated within 1 h and stored at −80° C. before analysis. The blood collection to centrifugation process was performed under ice bath conditions. Three hours after administration, feeding was resumed.
Blood samples were collected from the animals in the intravenous injection group before administration and 5 min, 0.25 h, 0.5 h, 1.0 h, 2.0 h, 4.0 h, 8.0 h, 12.0 h and 24.0 h after administration and processed as in the intragastric administration group.
Determination of plasma concentrations in beagles after intragastric administration and intravenous injection of different concentrations of test compounds: 30 μL of beagle plasma at each time point post-dose was mixed with an internal standard solution (internal standard for the compound of Example 16: 100 ng/mL warfarin; internal standard for compound MYK-461: 100 ng/mL tolbutamide) and 300 μL of methanol; the mixture was vortexed for 1 min and centrifuged at 18,000 g for 7 min, and 200 μL of the supernatant was transferred to a 96-well plate; 1 μL of the supernatant was taken for LC/MS/MS analysis.

[2] = Toxicokinetic evaluation of 14-day repeated intragastric administration to SD rats; type: in vivo
Procedure: With SD rats as test animals, the plasma concentrations of the test compounds and the concentrations of the original forms of the compounds in the administration solutions were measured by LC/MS/MS at different time points after intragastric administration. The toxicokinetic performance of the compound disclosed herein was studied in SD rats and its toxicokinetic profile was evaluated.
24 SD rats, an equal number of males and females, evenly divided into 6 groups of 4, an equal number of males and females in each group, provided by Vital River Laboratory Animal Technology Co., Ltd.
A certain amount of the compound of Example 16 was measured out, and 15% PEG400 and 85% (10% TPGS+1% HPMC K100LV) were added to prepare a pale yellow homogenous suspension.
A certain amount of compound MYK-461 was measured out, and 0.5% MC was added to prepare a colorless clear solution.
The compound of Example 16 was intragastrically administered at doses of 5 mg/kg, 15 mg/kg and 30 mg/kg, at a volume of 10 mL/kg.
Compound MYK-461 was administered at doses of 0.5 mg/kg, 1.5 mg/kg and 3 mg/kg, at a volume of 10 mL/kg.
0.2-mL blood samples were collected from the orbit 0.5 h, 1.0 h, 2.0 h, 4.0 h, 8.0 h and 24.0 h after administration on day 1, and before administration and 0.5 h, 1.0 h, 2.0 h, 4.0 h, 8.0 hi, 24.0 h after administration on day 7 and day 14, placed into EDTA-K2 anticoagulation tubes, and centrifuged at 10,000 rpm for 1 min (4° C.), and plasma was isolated within 1 h and stored at −20° C. before analysis. The blood collection to centrifugation process was performed under ice bath conditions. Two hours after administration, feeding was resumed.
Determination of plasma concentrations in SD rats after intragastric administration of different concentrations of test compounds: 20 μL of SD rat plasma at each time point post-dose was mixed with 50 μL of an internal standard solution (internal standard for the compound of Example 16: 100 ng/mL verapamil; internal standard for compound MYK-461: 100 ng(mL camptothecin) and 200 μL of acetonitrile; the mixture was vortexed for 5 min and centrifuged at 3700 rpm for 10 min, and 1 μL of the supernatant was taken for LC/MS/MS analysis.

[3] = both (Example 16), male (MYK-461), beagle, dog, plasma, intravenous injection, 0.5 mg/kg
[4] = both (Example 16), male (MYK-461), beagle, dog, plasma, po, intragastric administration, 2 mg/kg
[5] = intravenous injection, 0.5 mg/kg

## Cc1ccc(F)c([C@H](C)Nc2nc(=O)n(C3CCOCC3)c(=O)[nH]2)c1 [Example 16, (S)-6-((1-(2-Fluoro-5-methylphenyl)ethyl)amino)-3-(tetrahydro-2H-pyran-4-yl)-1,3,5-triazine-2,4(1H,3H)-dione]
[1]
  T1/2 comparison (in words): significantly shorter T1/2
  absorption profile (in words): good absorption profile
[1]; [3]
  AUC: 716 ng·h/mL
  half-life: 5.6 h
  Cmax: 1080 ng/mL
  MRT: 7.5 h
[1]; both (Example 16), male (MYK-461), beagle, dog, plasma, po, intragastric administration, 2 mg/kg, read-out: Apparent volume of distribution Vz/F
  Vd/F: 6.05 L/kg
[1]; [4]
  AUC: 3100 ng·h/mL
  half-life: 7.5 h
  Cmax: 1540 ng/mL
  MRT: 9.5 h
[1]; both (Example 16), male (MYK-461), beagle, dog, plasma, po, intragastric administration, 2 mg/kg, read-out: Clearance CL/F
  CL/F: 9.26 mL/min/kg
[1]; [5]
  Apparent volume of distribution Vz/F: 5.022 L/kg
  Clearance CL/F: 10.4 mL/min/kg
[2]
  accumulation after 14 days of repeated intragastric administration (in words): did not show significant accumulation
[2]; both sexes, SD, rat, plasma, po, 5 mg/kg, repeated intragastric 5 mg/kg, Day 1, read-out: Apparent volume of distribution Vz/F
  Vd/F at 1 day: 1.27 L/kg
[2]; both sexes, SD, rat, plasma, po, 5 mg/kg, repeated intragastric 5 mg/kg, Day 1, read-out: Area under curve AUC
  AUC: 30000 ng·h/mL
[2]; both sexes, SD, rat, plasma, po, 5 mg/kg, repeated intragastric 5 mg/kg, Day 1, read-out: Clearance CL/F
  CL/F at 1 day: 3.06 mL/min/kg
[2]; both sexes, SD, rat, plasma, po, 5 mg/kg, repeated intragastric 5 mg/kg, Day 1, read-out: Half-life T1/2 (converted)
  half-life at 1 day: 4.8 h
[2]; both sexes, SD, rat, plasma, po, 5 mg/kg, repeated intragastric 5 mg/kg, Day 1, read-out: Plasma concentration Cmax
  Cmax at 1 day: 5740 ng/mL
[2]; both sexes, SD, rat, plasma, po, 5 mg/kg, repeated intragastric 5 mg/kg, Day 1, read-out: Residence time MRT
  MRT at 1 day: 5 h
[2]; both sexes, SD, rat, plasma, po, 5 mg/kg, repeated intragastric 5 mg/kg, Day 7, read-out: Apparent volume of distribution Vz/F
  Vd/F at 7 day: 1.28 L/kg
[2]; both sexes, SD, rat, plasma, po, 5 mg/kg, repeated intragastric 5 mg/kg, Day 7, read-out: Area under curve AUC
  AUC at 7 day: 28100 ng·h/mL
[2]; both sexes, SD, rat, plasma, po, 5 mg/kg, repeated intragastric 5 mg/kg, Day 7, read-out: Clearance CL/F
  CL/F at 7 day: 2.99 mL/min/kg
[2]; both sexes, SD, rat, plasma, po, 5 mg/kg, repeated intragastric 5 mg/kg, Day 7, read-out: Half-life T1/2 (converted)
  half-life at 7 day: 4.9 h
[2]; both sexes, SD, rat, plasma, po, 5 mg/kg, repeated intragastric 5 mg/kg, Day 7, read-out: Plasma concentration Cmax
  Cmax at 7 day: 4470 ng/mL
[2]; both sexes, SD, rat, plasma, po, 5 mg/kg, repeated intragastric 5 mg/kg, Day 7, read-out: Residence time MRT
  MRT at 7 day: 6 h
[2]; both sexes, SD, rat, plasma, po, 5 mg/kg, repeated intragastric 5 mg/kg, Day 14, read-out: Apparent volume of distribution Vz/F
  Vd/F at 14 day: 1.24 L/kg
[2]; both sexes, SD, rat, plasma, po, 5 mg/kg, repeated intragastric 5 mg/kg, Day 14, read-out: Area under curve AUC
  AUC at 14 day: 29800 ng·h/mL
[2]; both sexes, SD, rat, plasma, po, 5 mg/kg, repeated intragastric 5 mg/kg, Day 14, read-out: Clearance CL/F
  CL/F at 14 day: 2.8 mL/min/kg
[2]; both sexes, SD, rat, plasma, po, 5 mg/kg, repeated intragastric 5 mg/kg, Day 14, read-out: Half-life T1/2 (converted)
  half-life at 14 day: 5.1 h
[2]; both sexes, SD, rat, plasma, po, 5 mg/kg, repeated intragastric 5 mg/kg, Day 14, read-out: Plasma concentration Cmax
  Cmax at 14 day: 4860 ng/mL
[2]; both sexes, SD, rat, plasma, po, 5 mg/kg, repeated intragastric 5 mg/kg, Day 14, read-out: Residence time MRT
  MRT at 14 day: 6.2 h
[2]; both sexes, SD, rat, plasma, po, 15 mg/kg, repeated intragastric 15 mg/kg, Day 1, read-out: Apparent volume of distribution Vz/F
  Vd/F: 1.37 L/kg
